Experiments:
rat primary hepatocytes [1] = test: Lysosomal inhibition and DHA-induced degradation of newly synthesized apoB; format: cell-based; details: with lysosomal inhibitor
Protocol: (§1) To determine whether the proteasome mediated Ω-3 fatty acid-induced apoB degradation, rat hepatoma cells were incubated at 37° C. for 4 hr in [^35S]methionine-containing medium supplemented with either BSA or EPA/BSA complexes in the absence or presence of the proteasome inhibitor, lactacystin ([…]; purchased from the laboratory of Dr. E. J. Corey, Harvard University). Samples of cell lysates and conditioned media were subjected to immunoprecipitation analysis with anti-apoB antiserum, followed by SDS-PAGE and fluorography. To determine whether Ω-3 fatty acids targeted apoB to lysosomal degradation, a similar experiment was performed substituting ammonium chloride (40 mM) for lactacystin.
(§2) More evidence against the involvement of re-uptake in Ω-3 fatty acid-induced degradation of apoB is based on the knowledge that lipoproteins captured by either LDL receptors (Brown, M. S., and Goldstein, J. L. (1986) Science 232(4746), 34-47) or heparan sulfate proteoglycans (Williams, K. J. et al. (1992) J Biol Chem 267(19), 13284-92; and Fuki, I. V. et al. (2000) J Biol Chem 275(33), 25742-50) are directed to lysosomes. Thus, rat primary hepatocytes cells were treated with either OA or DHA in the absence or presence of ammonium chloride, a lysosomal inhibitor. […]

125I-LDL = test: Degradation of exogenously added 125I-LDL (lysosomal inhibition control); format: cell-based, rat
Protocol: as §1, §2

rat hepatoma cells [2] = test: Cell toxicity by TCA-PTA precipitation analysis; format: cell-based; details: 40 mM
Protocol: After electrophoresis, the gels were stained, fixed, soaked in Enhance fluor solution, and dried following protocols supplied by the manufacturer. Dried gels were then exposed to X-ray film at −70° C. and signals on the resulting fluorograms were typically quantified by densitometry or phosphorimaging. Using the total radioactivity applied to each lane of the gel and the relative signal intensity of each band in that lane, the radioactivity associated with each apoprotein species was calculated. In some cases, gel bands were excised and the incorporated radioactivity measured directly by scintillation counting. As a control, the incorporation of [^35S]methionine into total cellular and secreted proteins was measured by TCA-PTA precipitation, as described in Wang, H., Chen, X., and Fisher, E. A. (1993) J Clin Invest 91(4), 1380-9.
as §1, with “To determine whether Ω-3 fatty acids targeted apoB to lysosomal degradation, a similar experiment was performed substituting ammonium chloride (40 mM) for lactacystin.” left out

rat primary hepatocytes [3] = test: TBARS assay of ROS in rat primary hepatocytes; format: cell-based; details: FIG. 16B
rat hepatoma cells [4] = test: Pulse-chase recovery of [35S]-apoB100 (apoB100 degradation) in rat hepatoma cells; format: cell-based; details: co-treatment with DHA, FIG. 13A and 13B
Protocol: (§3) FIG. 13 illustrates that either an iron chelator (DFX) or lipid antioxidants block DHA-stimulated apoB degradation and reactive oxygen species (ROS) production. Rat hepatoma cells were plated in culture wells and pre-incubated in media containing either DHA or DHA with one of the indicated compounds. Radiolabeled methionine/cysteine was added to the culture media for 15 minutes, after which time, the culture media were replaced by fresh media identical in composition except that radiolabeled methionine/cysteine were replaced by unlabeled methionone/cysteine. The recovery of labeled apoB100 ([^35S]-apoB100) from the media and cell lysate was determined at the indicated time points (with time 0 being the point when the fresh media were applied to the cells) by immunoprecipitating apoB species with a rabbit polyclonal antibody to rat apoB, resuspending the immunoprecipitates, combining aliquots from cell lysate and media samples from each well, resolving the protein contents of the combined immunoprecipitates by SDS-polyacrylamide gel electrophoresis (SDS-PAGE), and exposing the resultant gels to X-ray film in order to visualize the labeled apoB bands. In panel A are shown representative signals for radiolabeled apoB100 in each of the treatment conditions. […] For each treatment, there were at least 2 wells/treatment for each time point and the entire experiment repeated. The signal intensities of the apoB100 bands were quantified by densitometry and the mean relative recoveries (the % of the 15 minute, or initial, value still remaining at 120 minutes) ±SEM are shown in panel B. Note that the visual impressions observable in panel A are confirmed by the quantitative analysis; i.e., there is a substantial increase in labeled apoB100 recovery with any of the co-treatments. In panel C, the ROS content of the cell lysates at the end of the experiment was measured by the standard TBARS assay (Stocks et al., 1974, Clin Sci Mol Med 47,215-222). Note that compared to control (BSA), DHA induced a large increase in TBARS, as expected because of its high content on unsaturated bonds.
FIG. 14 illustrates that DHA, but not saturated MA, induces apoB100 degradation in rat hepatoma cells. An experiment similar to the one described in FIG. 13 was performed, with the following changes: A) The immunoprecipitates from cell lysate and media samples were not combined, but separately analyzed. B) In addition to the 15 and 120 minute time points, apoB recovery was determined at 30 minutes. C) In addition to DHA, the effects of the fatty acid myristic (MA) were also tested because it has no unsaturated bonds and should not give rise to ROS.
FIG. 15 illustrates that AA stimulates apoB100 degradation and increases ROS. […] Note in the upper panel that the combined recovery (from two separate wells/time point) of radiolabeled apoB100 decreased from 15 to 120 minutes, indicating significant apoB100 degradation had occurred in the presence of AA. […] In addition to being a source of ROS, AA can also be converted by cyclooxygenase (COX) to bioactive prostaglandin compounds. We therefore repeated the experiment with AA but with co-treatment by the COX inhibitor aspirin.
To further explore the underlying mechanisms, rat hepatoma cells or primary hepatocytes were incubated with the Ω-3 fatty acid DHA complexed to BSA, while blocking candidate cellular mediators. […] There was, however, strong evidence against a role for calcium. Chelation of intracellular Ca^++ with BAPTA-AM, pharmacologic blockage of Ca^++ channels, depletion of the ER-calcium pool, and increasing Ca++ influx with an ionophore each had no effect. Because EGTA also chelates Fe^+++, and DHA is subject to Fe^+++-dependent peroxidation, the role of this lipid modification was examined. As shown in FIG. 13A and 13B, Desferroxamine (DFX), a chelator of Fe^+++, the antioxidant vitamin E (Vit E), and the synthetic antioxidant BHT, each inhibited DHA-stimulated apoB100 degradation by ˜60%.

rat hepatoma cells [5] = test: TBARS assay of ROS in cell lysates of rat hepatoma cells; format: cell-based; details: co-treatment with DHA, FIG. 13C
Protocol: as §3, with “bonds. […] FIG. 15 illustrates that AA stimulates apoB100 degradation and increases ROS. […] Note in the upper panel that the combined recovery (from two separate wells/time point) of radiolabeled apoB100 decreased from 15 to 120 minutes, indicating significant apoB100 degradation had occurred in the presence of AA. […] In addition to being a source of ROS, AA can also be converted by cyclooxygenase (COX) to bioactive prostaglandin compounds. We therefore repeated the experiment with AA but with co-treatment by the COX inhibitor aspirin.” for “bonds.”

rat primary hepatocytes [6] = test: Basal apoB100 degradation (pulse-chase recovery) in rat primary hepatocytes; format: cell-based; details: FIG. 16A

Compound | DHA-induced degradation of newly synthesized apoB (rat primary hepatocytes [1]) | inhibition of the degradation of exogenously added 125I-LDL (125I-LDL; ammonium chloride 40 mM) [%] | degradation of 125I-LDL (125I-LDL; rat primary hepatocytes) | cell toxicity assessed by TCA-PTA precipitation analysis (rat hepatoma cells [2]) | ROS level (TBARS) (rat primary hepatocytes [3]) | inhibition of DHA-stimulated apoB100 degradation (rat hepatoma cells [4]) [%] | DHA-increased ROS, TBARS assay, with co-treatment (rat hepatoma cells [5]) | basal level of apoB degradation (rat primary hepatocytes [6])
Cl.N [ammonium chloride] | no decrease | > 80 | decreased | no evidence of cell toxicity | – | – | – | –
CC(=O)N(O)CCCCCNC(=O)CCC(=O)N(O)CCCCCNC(=O)CCC(=O)N(O)CCCCCN [DFX, desferrioxamine] | – | – | – | – | reduced | ~60 | reduced | essentially reversed

Reference: patent publication US20030170643A1, “Regulation of apoB treatment and drug screening for cardiovascular and metabolic disorders or syndromes” (priority 1999, published 2003)
